Test results taken from the supplement of paper PMC11997997.

Experiments:
[1] = system: murine bone marrow-derived macrophages; assay: area under cytotoxicity dose-response curve (AUC (% cytotoxicity x dose, relative)); higher = more cytotoxic; conditions: duration: 6 days; dose range: 0.13-80 uM, 8 points
Outline: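 Cytotoxicity is expressed as the area under the dose–response curve from GraphPad Prism version 10. To obtain it, primary murine bone marrow-derived macrophages were incubated for 6 days at 37 °C in 5% CO2 across final concentrations of 80–0.13 μM. Viability came from CellTiter-Glo luminescence, and percent cytotoxicity was normalised to vehicle and positive control wells.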

[2] = system: Mycobacterium tuberculosis CDC1551 (intracellular, in murine BMDM); assay: area under intracellular growth-inhibition dose-response curve (AUC (% inhibition x dose, relative)); higher = more potent; conditions: duration: 6 days; dose range: 0.13-80 uM, 8 points
Outline: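 In 384-well opaque plates, primary murine bone marrow-derived macrophages were infected with luciferase-expressing M. tuberculosis CDC1551 (multiplicity of infection 1, 1 h) 24 h after seeding, then treated for 6 days across final concentrations of 80–0.13 μM. Growth was measured by Bright-Glo luciferin assay, normalised to a reference drug control and the lowest-concentration wells. The reported value is the area under the growth-inhibition dose–response curve from GraphPad Prism.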

| SMILES | area under cytotoxicity dose-response curve [1] | area under intracellular growth-inhibition dose-response curve [2] |
| --- | --- | --- |
| CCC(NC(=O)Nc1nnc(C(F)(F)F)s1)(C(F)(F)F)C(F)(F)F | 14.5 | 143 |
| CCN1/C(=C/c2ccc3cc(C)ccc3[n+]2CC)Sc2ccccc21.[I-] | 176 | 144 |
| COc1ccc(OC)c2nc3c(cc12)CCC3 | 23.1 | 211 |
| COC(=O)c1sccc1NC(=O)c1c(F)c(F)c(F)c(F)c1F | 12.8 | 158 |
| O=C(COc1ccc(/C=N/NC(=O)c2ccncc2)cc1)Nc1ccccc1 | 34.4 | 266 |
| Cc1nc(SCC(=O)NC2CCCCC2)nc(O)c1C | 17.5 | 30.2 |
| O=C(N/N=C/C=C/c1cccc([N+](=O)[O-])c1)c1ccncc1 | 17.5 | 111 |
| COc1ccc(/C=N/NC(=O)c2ccncc2)cc1CN1CCCc2ccccc21 | 19.4 | 201 |
| Cc1ccccc1C(=O)N1CCN(c2ccc(NC(=S)NC(=O)c3ccco3)cc2)CC1 | 63.6 | 185 |
| CC1CCc2c(N3CCC(O)CC3)c(F)cc3c(=O)c(C(=O)O)cn1c23 (stereo not given) | 67 | 162 |
| O=C(COc1ccc(Cl)cc1)N1CCCC1 | 64 | 213 |
| CCCc1cc(C(=O)NC2CCCCC2)no1 | 108 | 232 |
| C[C@H]1COc2c(N3CCN(C)CC3)c(F)cc3c(=O)c(C(=O)O)cn1c23 | 137 | 200 |
| C=C1C(=O)O[C@@H]2C[C@@H](C)[C@@H]3C=CC(=O)[C@@]3(C)[C@@H](OC(C)=O)[C@H]12 | 118 | 46.3 |
| O=C(COC(=O)c1ccc([N+](=O)[O-])o1)Nc1ccc(F)cc1 | < 0 | 144 |
| O=C(CSc1ccccc1)NNC(=O)c1ccncc1 | 18.7 | 219 |
| CC1CCN(C(=O)c2ccc(CNc3c(N4CCCC4)c(=O)c3=O)cc2)CC1 | 78.3 | 166 |
| CCNc1nc(NCC)nc(N/N=C/c2ccc([N+](=O)[O-])o2)n1 | 18 | 266 |
| CCc1ccc(OCC(=O)NC(=S)Nc2ccc(C(C)=O)cc2)c(Br)c1 | < 0 | 238 |
| CCOC(=O)c1c(C)nc2ccc(C)cn12 | 24.3 | 155 |
